This test concerns human citrated plasma. The test is described as follows: aPTT time prolongation in human citrated plasma (Biomatic B10 coagulometer). Format: biochemical. The conditions noted are these: effective concentration at which the aPTT time is double compared with the control, 37° C. As to the method: were investigated for their effect on prolonging the aPTT time as follows:
Materials: plasma, from human citrated blood;
PTT reagent, Boehringer Mannheim (524298);
Calcium solution (0.025 mol/L), Behring Werke, Marburg (ORH 056/57),
Diethylbarbiturate acetate buffer, Behring Werke, Marburg (ORWH 60/61); and
Biomatic B10 coagulometer, Desaga, Wiesloch.
The aPTT time was determined using a Biomatic B10 coagulometer made by Messrs. Desaga.
The test substance was placed in the test tubes prescribed by the manufacturer with 0.1 mL of human citrated plasma and 0.1 mL of PTT reagent. The mixture was incubated for three minutes at 37° C. The clotting reaction was started by the addition of 0.1 mL of calcium solution. The time is measured using the apparatus from the addition of the calcium solution up to the clotting of the mixture. Mixtures to which 0.1 mL of DBA buffer had been added were used as the controls.
According to the definition, a dosage-activity curve was used to determine the effective concentration of the substance at which the aPTT time is double compared with the control.

Regarding `Cc1cc(C(=O)N2CCCC2C)c(C)cc1NC(=O)CNc1ccc(C(=N)N)cc1` (centres unmarked) [A, 4-{N-[2,5-dimethyl-4-(2-methylpyrrolidinocarbonyl)phenylaminocarbonylmethyl]-amino}benzamidine], the “aPTT time (ED200 in μM)” value is 0.65 µM. The result for `Cc1cc(C(=O)C(C)C)c(C)cc1NC(=O)CNc1ccc(C(=N)N)cc1` [B, 4-[N-(2,5-dimethyl-4-isopropylcarbonylphenylaminocarbonylmethyl)amino]benzamidine] reads 0.67 µM.

(Values after patent publication US20040248897A1, “Substituted N-acylaniline derivatives, the preparation thereof, and their use as pharmaceutical compositions” (Boehringer Ingelheim Pharma GmbH & Co. KG, priority 2001, published 2004).)
